Test results taken from PubChem BioAssay (NCI).
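Five compound concentrations were applied to cells in 96-well plates for 48 hours; endpoints were derived by simple linear interpolation of the resulting dose-response curve. GI50 = concentration required for 50% inhibition of growth. TGI is the concentration that stops growth completely.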

What was measured:
Assay in all cases: NCI-60 cell line screen, 48 h
MOLT-4 leukemia = system: MOLT-4 leukemia
SK-MEL-28 melanoma = system: SK-MEL-28 melanoma
MCF7 breast = system: MCF7 breast
BT-549 breast = system: BT-549 breast
SF-539 CNS = system: SF-539 CNS
NCI-H226 lung = system: NCI-H226 lung
IGROV1 ovarian = system: IGROV1 ovarian
MDA-MB-435 = system: MDA-MB-435
COLO 205 colon = system: COLO 205 colon
SN12C renal = system: SN12C renal
HCT-15 colon = system: HCT-15 colon
MALME-3M melanoma = system: MALME-3M melanoma
CCRF-CEM leukemia = system: CCRF-CEM leukemia
LOX IMVI melanoma = system: LOX IMVI melanoma
HCC-2998 colon = system: HCC-2998 colon
SK-MEL-2 melanoma = system: SK-MEL-2 melanoma
T-47D breast = system: T-47D breast
NCI-H522 lung = system: NCI-H522 lung
DU-145 prostate = system: DU-145 prostate
HOP-62 NSCLC = system: HOP-62 NSCLC
PC-3 prostate = system: PC-3 prostate
KM12 colon = system: KM12 colon
NCI-H23 lung = system: NCI-H23 lung
MDA-MB-231 breast = system: MDA-MB-231 breast
OVCAR-4 ovarian = system: OVCAR-4 ovarian
UACC-62 melanoma = system: UACC-62 melanoma
HL-60(TB) leukemia = system: HL-60(TB) leukemia
SR leukemia = system: SR leukemia
RXF 393 renal = system: RXF 393 renal
A549 NSCLC = system: A549 NSCLC
OVCAR-3 ovarian = system: OVCAR-3 ovarian
CAKI-1 renal = system: CAKI-1 renal
NCI-H460 lung = system: NCI-H460 lung
ACHN renal = system: ACHN renal
HT29 colon = system: HT29 colon
TK-10 renal = system: TK-10 renal
SW-620 colon = system: SW-620 colon
UO-31 renal = system: UO-31 renal
SF-268 CNS = system: SF-268 CNS
U251 CNS = system: U251 CNS
SK-MEL-5 melanoma = system: SK-MEL-5 melanoma
HCT-116 colon = system: HCT-116 colon
SNB-75 CNS = system: SNB-75 CNS
M14 melanoma = system: M14 melanoma
NCI/ADR-RES ovarian = system: NCI/ADR-RES ovarian
SK-OV-3 ovarian = system: SK-OV-3 ovarian
786-0 renal = system: 786-0 renal
OVCAR-5 ovarian = system: OVCAR-5 ovarian
HOP-92 NSCLC = system: HOP-92 NSCLC
EKVX NSCLC = system: EKVX NSCLC
SF-295 CNS = system: SF-295 CNS
RPMI-8226 leukemia = system: RPMI-8226 leukemia
UACC-257 melanoma = system: UACC-257 melanoma
SNB-19 CNS = system: SNB-19 CNS
OVCAR-8 ovarian = system: OVCAR-8 ovarian
A498 renal = system: A498 renal
HS 578T breast = system: HS 578T breast

Compound: CSC1=CC(=O)c2ccccc2C1=O
- GI50 (MOLT-4 leukemia): 1.64 µM
- TGI (MOLT-4 leukemia): 4.86 µM
- GI50 (SK-MEL-28 melanoma): 11.1 µM
- TGI (SK-MEL-28 melanoma): 23.8 µM
- GI50 (MCF7 breast): 1.72 µM
- TGI (MCF7 breast): 3.65 µM
- GI50 (BT-549 breast): 11.6 µM
- TGI (BT-549 breast): 23.8 µM
- GI50 (SF-539 CNS): 11.4 µM
- TGI (SF-539 CNS): 24.3 µM
- GI50 (NCI-H226 lung): 1.68 µM
- TGI (NCI-H226 lung): 3.82 µM
- GI50 (IGROV1 ovarian): 3.7 µM
- TGI (IGROV1 ovarian): 13.2 µM
- GI50 (MDA-MB-435): 3.02 µM
- TGI (MDA-MB-435): 9.73 µM
- GI50 (COLO 205 colon): 1.99 µM
- TGI (COLO 205 colon): 3.65 µM
- GI50 (SN12C renal): 5.31 µM
- TGI (SN12C renal): 19.4 µM
- GI50 (HCT-15 colon): 11.6 µM
- TGI (HCT-15 colon): 26.1 µM
- GI50 (MALME-3M melanoma): 1.92 µM
- TGI (MALME-3M melanoma): 3.54 µM
- GI50 (CCRF-CEM leukemia): 0.296 µM
- TGI (CCRF-CEM leukemia): 1.44 µM
- GI50 (LOX IMVI melanoma): 1.75 µM
- TGI (LOX IMVI melanoma): 3.92 µM
- GI50 (HCC-2998 colon): 15.3 µM
- TGI (HCC-2998 colon): 29.9 µM
- GI50 (SK-MEL-2 melanoma): 11.6 µM
- TGI (SK-MEL-2 melanoma): 33.7 µM
- GI50 (T-47D breast): 0.41 µM
- TGI (T-47D breast): 2.1 µM
- GI50 (NCI-H522 lung): 2.02 µM
- TGI (NCI-H522 lung): 4.16 µM
- GI50 (DU-145 prostate): 10.8 µM
- TGI (DU-145 prostate): 23.6 µM
- GI50 (HOP-62 NSCLC): 16.7 µM
- TGI (HOP-62 NSCLC): 31.8 µM
- GI50 (PC-3 prostate): 2.54 µM
- TGI (PC-3 prostate): 12.5 µM
- GI50 (KM12 colon): 6.75 µM
- TGI (KM12 colon): 22.5 µM
- GI50 (NCI-H23 lung): 3.45 µM
- TGI (NCI-H23 lung): 17.5 µM
- GI50 (MDA-MB-231 breast): 1.29 µM
- TGI (MDA-MB-231 breast): 3.02 µM
- GI50 (OVCAR-4 ovarian): 1.36 µM
- TGI (OVCAR-4 ovarian): 2.67 µM
- GI50 (UACC-62 melanoma): 4.06 µM
- TGI (UACC-62 melanoma): 17.1 µM
- GI50 (HL-60(TB) leukemia): 1.87 µM
- TGI (HL-60(TB) leukemia): 4.33 µM
- GI50 (SR leukemia): 3.11 µM
- TGI (SR leukemia): 8.98 µM
- GI50 (RXF 393 renal): 1.54 µM
- TGI (RXF 393 renal): 2.9 µM
- GI50 (A549 NSCLC): 24.2 µM
- TGI (A549 NSCLC): 64.8 µM
- GI50 (OVCAR-3 ovarian): 1.78 µM
- TGI (OVCAR-3 ovarian): 3.37 µM
- GI50 (CAKI-1 renal): 1.59 µM
- TGI (CAKI-1 renal): 3.11 µM
- GI50 (NCI-H460 lung): 31.3 µM
- TGI (NCI-H460 lung): > 100 µM
- GI50 (ACHN renal): 1.66 µM
- TGI (ACHN renal): 3.07 µM
- GI50 (HT29 colon): 26.3 µM
- TGI (HT29 colon): 65.2 µM
- GI50 (TK-10 renal): 2.66 µM
- TGI (TK-10 renal): 5.5 µM
- GI50 (SW-620 colon): 2.49 µM
- TGI (SW-620 colon): 8.13 µM
- GI50 (UO-31 renal): 1.4 µM
- TGI (UO-31 renal): 2.84 µM
- GI50 (SF-268 CNS): 8.85 µM
- TGI (SF-268 CNS): 22.1 µM
- GI50 (U251 CNS): 11 µM
- TGI (U251 CNS): 23.8 µM
- GI50 (SK-MEL-5 melanoma): 5.74 µM
- TGI (SK-MEL-5 melanoma): 19 µM
- GI50 (HCT-116 colon): 1.52 µM
- TGI (HCT-116 colon): 2.92 µM
- GI50 (SNB-75 CNS): 11.6 µM
- TGI (SNB-75 CNS): 24.2 µM
- GI50 (M14 melanoma): 2.03 µM
- TGI (M14 melanoma): 3.88 µM
- GI50 (NCI/ADR-RES ovarian): 2.81 µM
- TGI (NCI/ADR-RES ovarian): 11.7 µM
- GI50 (SK-OV-3 ovarian): 18.2 µM
- TGI (SK-OV-3 ovarian): 32.1 µM
- GI50 (786-0 renal): 4.06 µM
- TGI (786-0 renal): 14.1 µM
- GI50 (OVCAR-5 ovarian): 17.4 µM
- TGI (OVCAR-5 ovarian): 34.2 µM
- GI50 (HOP-92 NSCLC): 0.811 µM
- TGI (HOP-92 NSCLC): 2.19 µM
- GI50 (EKVX NSCLC): 15.5 µM
- TGI (EKVX NSCLC): 34.9 µM
- GI50 (SF-295 CNS): 15.4 µM
- TGI (SF-295 CNS): 31.5 µM
- GI50 (RPMI-8226 leukemia): 2.61 µM
- TGI (RPMI-8226 leukemia): 7.96 µM
- GI50 (UACC-257 melanoma): 2.04 µM
- TGI (UACC-257 melanoma): 4.36 µM
- GI50 (SNB-19 CNS): 13.8 µM
- TGI (SNB-19 CNS): 29.4 µM
- GI50 (OVCAR-8 ovarian): 3.58 µM
- TGI (OVCAR-8 ovarian): 15 µM

Compound: Cc1c2c(n3c(nc4ccccc43)c1C#N)N(c1ccc(F)cc1)CC2
- TGI (SK-MEL-28 melanoma): > 100 µM
- TGI (MCF7 breast): > 100 µM
- TGI (BT-549 breast): > 100 µM
- TGI (SF-539 CNS): > 100 µM
- TGI (NCI-H226 lung): > 100 µM
- TGI (IGROV1 ovarian): > 100 µM
- TGI (MDA-MB-435): > 100 µM
- TGI (COLO 205 colon): > 100 µM
- TGI (SN12C renal): > 100 µM
- TGI (HCT-15 colon): > 100 µM
- TGI (MALME-3M melanoma): > 100 µM
- TGI (CCRF-CEM leukemia): > 100 µM
- TGI (LOX IMVI melanoma): > 100 µM
- TGI (HCC-2998 colon): > 100 µM
- TGI (SK-MEL-2 melanoma): > 100 µM
- TGI (NCI-H522 lung): > 100 µM
- TGI (DU-145 prostate): > 100 µM
- TGI (HOP-62 NSCLC): > 100 µM
- TGI (A498 renal): > 100 µM
- TGI (PC-3 prostate): > 100 µM
- TGI (NCI-H23 lung): > 100 µM
- TGI (OVCAR-4 ovarian): > 100 µM
- TGI (UACC-62 melanoma): > 100 µM
- TGI (HS 578T breast): > 100 µM
- TGI (HL-60(TB) leukemia): > 100 µM
- TGI (SR leukemia): > 100 µM
- TGI (RXF 393 renal): > 100 µM
- TGI (A549 NSCLC): > 100 µM
- TGI (OVCAR-3 ovarian): > 100 µM
- TGI (CAKI-1 renal): > 100 µM
- TGI (NCI-H460 lung): > 100 µM
- TGI (ACHN renal): > 100 µM
- TGI (HT29 colon): > 100 µM
- TGI (TK-10 renal): > 100 µM
- TGI (SW-620 colon): > 100 µM
- TGI (UO-31 renal): > 100 µM
- TGI (SF-268 CNS): > 100 µM
- TGI (U251 CNS): > 100 µM
- TGI (SK-MEL-5 melanoma): > 100 µM
- TGI (HCT-116 colon): > 100 µM
- TGI (SNB-75 CNS): > 100 µM
- TGI (NCI/ADR-RES ovarian): > 100 µM
- TGI (SK-OV-3 ovarian): > 100 µM
- TGI (786-0 renal): > 100 µM
- TGI (OVCAR-5 ovarian): > 100 µM
- TGI (HOP-92 NSCLC): > 100 µM
- TGI (SF-295 CNS): > 100 µM
- TGI (UACC-257 melanoma): > 100 µM
- TGI (SNB-19 CNS): > 100 µM
- TGI (OVCAR-8 ovarian): > 100 µM
